Experiments:
human Edg-1(S1P1) [1] = molecular target: T1, human Edg-1(S1P1) (Homo sapiens, UniProt P21453); assay: Cell system binding test: inhibition of [3H]-S1P binding to Edg-1(S1P1) gene transferred HEK-293 cells; settings: 10 μM compound, [3H]-S1P 10 nM, read-out: Cell system binding test % inhibition (10 μM)
T1 construct: expressed in transfected cells; host or cells: HEK-293

human Edg-1(S1P1) [2] = molecular target: T1, human Edg-1(S1P1); assay: Membrane system binding test: inhibition of [33P]-S1P binding to the membrane fraction of Edg-1(S1P1) gene transferred HEK-293 cells; settings: 10 μM compound; [33P]-S1P 0.1 nM; membrane fraction of Edg-1(S1P1) gene transferred HEK-293 cells; read-out: Membrane system binding test % inhibition (10 μM)
Protocol: The membrane fraction was obtained by treating the cells with a solubilizing buffer (1 mM Tris/HCl, pH 7.2) for 10 minutes on ice, centrifuging the system (1000×g, 5 min) to remove insoluble fractions, and then centrifuging the system (40000×g, 30 min, 4° C.). The resulting membrane fraction was dissolved in a binding buffer (20 mM Tris-HCl, pH 7.4, 100 mM NaCl, 15 mM NaF, 2 mM deoxypyridoxine, 4 mg/mL fatty acid-free BSA), and then [^33P]-S1P (produced by ARC, end concentration 0.1 nM) and a DMSO solution of the test compound (end concentration of the compound: 10^−5 M, end concentration of DMSO: 0.1%) were added, followed by stirring the mixture and subsequently treating it for 1 hour at 30° C. Using a harvester, the membrane fraction was harvested onto unifilter-96GF/C filter (produced by Perkin-Elmer). Then, the filter with the membrane fraction was washed 4 times with the binding buffer, and the filter was dried. To the filter, 25 μL Microscint 0 (produced by Perkin-Elmer) was added, and the assay system was measured for radioactivity by means of Top Count NXT (Packard). Based on the radioactivity, the amount (A) of binding of [^33P]-S1P to the membrane fraction upon addition of the compound was calculated.
The same procedure was performed in the absence of the test compound, and the amount (B) of binding of [^33P]-S1P was calculated. Moreover, the same procedure was performed in the absence of the test compound with the use of HEK-293 cells, to which the Edg-1(S1P1) gene had not been transferred, and the background amount (C) of binding of [^33P]-S1P was calculated.
The Edg-1(S1P1) binding inhibition rate of the compound, calculated from the following equation, is shown in […]

T1 sequence (P21453 whole entry): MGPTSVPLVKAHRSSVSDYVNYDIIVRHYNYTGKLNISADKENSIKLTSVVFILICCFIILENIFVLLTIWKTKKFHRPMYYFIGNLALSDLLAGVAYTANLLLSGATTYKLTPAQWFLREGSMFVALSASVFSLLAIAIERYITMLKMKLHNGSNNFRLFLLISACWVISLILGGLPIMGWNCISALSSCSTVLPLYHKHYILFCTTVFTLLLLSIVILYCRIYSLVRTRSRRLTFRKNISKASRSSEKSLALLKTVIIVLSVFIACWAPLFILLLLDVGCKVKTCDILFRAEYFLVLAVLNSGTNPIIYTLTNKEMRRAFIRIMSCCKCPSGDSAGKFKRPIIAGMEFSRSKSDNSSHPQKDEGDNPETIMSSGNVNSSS

Structure (SMILES) | inhibition at 10 µM (human Edg-1(S1P1) [1]) [%] | inhibition at 10 µM (human Edg-1(S1P1) [2]) [%]
CCn1c(SCC2CCCCCCC2)nnc1[C@@H](C)NS(=O)(=O)c1ccc(Cl)cc1 [Compound 35] | 91.9 | 87.7
CCn1c(SC2CCc3ccccc3C2)nnc1[C@@H](C)NS(=O)(=O)c1ccc(Cl)cc1 (stereo partly drawn) [Compound 36] | 89.5 | 104
CCn1c(SCCOCc2ccccc2)nnc1[C@@H](C)NS(=O)(=O)c1ccc(Cl)cc1 [Compound 37] | 92.7 | 92.8
CCn1c(SC/C=C/c2ccccc2)nnc1[C@@H](C)NS(=O)(=O)c1ccc(Cl)cc1 [Compound 38] | 91.5 | 81
CCn1c(SCCCc2ccccc2)nnc1[C@@H](C)NS(=O)(=O)c1ccc(Cl)cc1 [Compound 39] | 93.8 | 86.7
CCn1c(SC(c2ccccc2)c2ccccc2)nnc1[C@@H](C)NS(=O)(=O)c1ccc(Cl)cc1 [Compound 40] | 87 | 46.1
CCn1c(SCc2c(Cl)cccc2Cl)nnc1[C@@H](C)NS(=O)(=O)c1ccc(Cl)cc1 [Compound 43] | 90.5 | 102
CCn1c(SCc2ccc(C(F)(F)F)cc2)nnc1C(C)NS(=O)(=O)c1ccc(Cl)cc1 (stereo not drawn) [Compound 46] | 90.4 | 99.5
CCn1c(SCC(=O)c2ccccc2)nnc1[C@@H](C)NS(=O)(=O)c1ccc(Cl)cc1 [Compound 47] | 92.5 | 99.2
CCn1c(SCc2cccc3ccccc23)nnc1[C@@H](C)NS(=O)(=O)c1ccc(Cl)cc1 [Compound 48] | 93 | 101
CCn1c(SC/C=C\COCc2ccccc2)nnc1[C@@H](C)NS(=O)(=O)c1ccc(Cl)cc1 [Compound 50] | 95.3 | 96.2
CCn1c(SC2CCc3ccccc32)nnc1[C@@H](C)NS(=O)(=O)c1ccc(Cl)cc1 (stereo partly drawn) [Compound 51] | 91.2 | 93
CCn1c(SCc2ccc(C#N)cc2)nnc1[C@@H](C)NS(=O)(=O)c1ccc(Cl)cc1 [Compound 56] | 87.1 | 91
CCn1c(SCc2ccc(C(=O)OC)cc2)nnc1[C@@H](C)NS(=O)(=O)c1ccc(Cl)cc1 [Compound 58] | 91.9 | 98.1

Next, values leading:

inhibition at 10 µM (human Edg-1(S1P1) [1]) [%] | inhibition at 10 µM (human Edg-1(S1P1) [2]) [%] | Structure (SMILES)
87.3 | 97.3 | CCn1c(SC(C)c2ccccc2)nnc1[C@@H](C)NS(=O)(=O)c1ccc(Cl)cc1 (stereo partly drawn) [Compound 41]
85.4 | 98.8 | CCn1c(SCc2ccccc2Cl)nnc1[C@@H](C)NS(=O)(=O)c1ccc(Cl)cc1 [Compound 42]
93 | 99.6 | CCn1c(SCc2cccc(Cl)c2)nnc1[C@@H](C)NS(=O)(=O)c1ccc(Cl)cc1 [Compound 44]
91.7 | 91.3 | CCn1c(SCc2ccc(Cl)cc2)nnc1[C@@H](C)NS(=O)(=O)c1ccc(Cl)cc1 [Compound 45]
94.8 | 93.9 | CCn1c(SC2CCOC2)nnc1[C@@H](C)NS(=O)(=O)c1ccc(Cl)cc1 (stereo partly drawn) [Compound 49]
93.6 | 89.1 | CCn1c(SC(C(=O)OC)c2ccccc2)nnc1[C@@H](C)NS(=O)(=O)c1ccc(Cl)cc1 (stereo partly drawn) [Compound 52]
90.8 | 89.3 | CCSc1nnc([C@@H](C)NS(=O)(=O)c2ccc(Cl)cc2)n1CC [Compound 53]
88.7 | 105 | CCn1c(SC(C)C)nnc1[C@@H](C)NS(=O)(=O)c1ccc(Cl)cc1 [Compound 54]
94.3 | 104 | CCn1c(SC2CCC2)nnc1[C@@H](C)NS(=O)(=O)c1ccc(Cl)cc1 [Compound 55]
92.6 | 100 | CCn1c(SCC(F)F)nnc1[C@@H](C)NS(=O)(=O)c1ccc(Cl)cc1 [Compound 57]

Source: US8022225B2, “Triazole derivative” (Taisho Pharmaceutical Co., Ltd, priority 2004, dated 2011)
